Values quoted from earlier work as cited in PMC11979685, “Synthesis of Derivatives of the Antibiotic Albicidin: The N‐Terminal Fragment as Key to Control Potency and Resistance Mediated by the Binding Protein AlbA” (Chemistry (Weinheim an Der Bergstrasse, Germany), 2025).
Converted amounts (≈) assume the structure as drawn.

Columns and labels:
Design in all cases: method as in PMID 36741192
[1] = tested on: E. coli BW25113; conditions: already published elsewhere; cited from earlier work
[2] = target: E. coli DNA gyrase (Escherichia coli, UniProt P0AES4); conditions: E. coli gyrase DNA cleavage; already published elsewhere; read-out: CC50 (concentration at half-maximum cleavage); cited from earlier work
E. coli DNA gyrase, sequence (P0AES4 whole entry): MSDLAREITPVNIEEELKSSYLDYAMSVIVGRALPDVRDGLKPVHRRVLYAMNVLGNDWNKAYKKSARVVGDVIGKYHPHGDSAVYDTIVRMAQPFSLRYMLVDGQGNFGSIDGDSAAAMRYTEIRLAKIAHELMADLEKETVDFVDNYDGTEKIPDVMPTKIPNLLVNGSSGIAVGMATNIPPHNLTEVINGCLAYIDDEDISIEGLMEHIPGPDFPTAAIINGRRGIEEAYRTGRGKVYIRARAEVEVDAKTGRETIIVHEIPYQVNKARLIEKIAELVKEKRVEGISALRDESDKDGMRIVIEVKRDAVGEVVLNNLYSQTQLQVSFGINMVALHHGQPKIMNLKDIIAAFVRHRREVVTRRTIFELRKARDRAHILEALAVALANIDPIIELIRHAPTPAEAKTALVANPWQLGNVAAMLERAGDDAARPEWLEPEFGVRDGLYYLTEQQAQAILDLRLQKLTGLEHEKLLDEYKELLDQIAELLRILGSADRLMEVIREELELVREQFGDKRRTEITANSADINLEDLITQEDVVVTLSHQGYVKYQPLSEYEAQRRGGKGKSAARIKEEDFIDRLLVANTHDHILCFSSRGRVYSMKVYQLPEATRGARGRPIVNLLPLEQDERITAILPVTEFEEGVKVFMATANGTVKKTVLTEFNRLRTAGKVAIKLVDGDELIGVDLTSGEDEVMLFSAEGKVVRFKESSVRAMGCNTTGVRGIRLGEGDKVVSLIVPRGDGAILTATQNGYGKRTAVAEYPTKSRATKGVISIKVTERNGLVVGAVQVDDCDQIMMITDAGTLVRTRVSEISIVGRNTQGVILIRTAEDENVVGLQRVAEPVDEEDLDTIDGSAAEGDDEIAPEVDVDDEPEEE

[3] = tested on: E. coli DSM1116; conditions: already published elsewhere; cited from earlier work
[4] = tested on: Mycobacterium phlei DSM 750; conditions: already published elsewhere; cited from earlier work
[5] = tested on: E. coli; conditions: E. coli in presence of 50 % human serum; already published elsewhere; cited from earlier work
[6] = tested on: Bacillus subtilis DSM 10; conditions: already published elsewhere; cited from earlier work
[7] = tested on: Micrococcus luteus DSM 1790; conditions: already published elsewhere; cited from earlier work

For COc1c(NC(=O)c2ccc(NC(=O)c3ccc(NC(=O)[C@H](Cc4c[nH]nn4)NC(=O)c4ccc(NC(=O)c5ccc6nc(C)ccc6c5)cc4)cn3)c(OC)c2O)ccc(C(=O)O)c1O [compound 16], the “MIC E. coli BW25113” value [1] is listed as 0.016 µg/mL (≈ 0.0179 µM), the CC50 [2] is listed as 0.025 µM and the “MIC E. coli DSM1116” value [3] is listed as 0.016 µg/mL (≈ 0.0179 µM). The “MIC M. phlei” value [4] was 0.5 µg/mL (≈ 0.559 µM), the “MICEc 50%HS” value [5] was 0.5 µg/mL and the “MIC B. sub.” value [6] was 0.063 µg/mL (≈ 0.0704 µM). For the same compound, the “MIC M. luteus” value [7] was 0.063 µg/mL (≈ 0.0704 µM).
